Results as given in ChEMBL document CHEMBL5291721, “A preclinical secondary pharmacology resource illuminates target-adverse drug reaction associations of marketed drugs” (Nat Commun, 2023).

Tests used:
[1] = target: T1, Alpha-2A adrenergic receptor (Homo sapiens, UniProt P08913); type: functional, cell-based
T1 sequence (P08913 whole entry): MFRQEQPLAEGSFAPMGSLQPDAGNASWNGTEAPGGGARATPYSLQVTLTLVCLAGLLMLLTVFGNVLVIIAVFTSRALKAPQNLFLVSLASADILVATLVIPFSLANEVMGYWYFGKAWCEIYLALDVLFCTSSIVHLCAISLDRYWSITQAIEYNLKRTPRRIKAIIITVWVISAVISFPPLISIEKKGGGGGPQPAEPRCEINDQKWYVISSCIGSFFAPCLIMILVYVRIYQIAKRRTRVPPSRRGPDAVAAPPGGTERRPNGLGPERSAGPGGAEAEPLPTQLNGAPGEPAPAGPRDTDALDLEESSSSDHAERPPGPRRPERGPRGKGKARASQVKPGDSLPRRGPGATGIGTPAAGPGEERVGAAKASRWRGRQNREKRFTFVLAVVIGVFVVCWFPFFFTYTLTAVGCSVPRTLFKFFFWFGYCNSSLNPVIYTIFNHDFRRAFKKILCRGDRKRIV

[2] = target: 5-hydroxytryptamine receptor 2A (Homo sapiens, UniProt P28223); type: functional, cell-based
[3] = target: T2, Glucocorticoid receptor (Homo sapiens, UniProt P04150)
T2 sequence (P04150 whole entry): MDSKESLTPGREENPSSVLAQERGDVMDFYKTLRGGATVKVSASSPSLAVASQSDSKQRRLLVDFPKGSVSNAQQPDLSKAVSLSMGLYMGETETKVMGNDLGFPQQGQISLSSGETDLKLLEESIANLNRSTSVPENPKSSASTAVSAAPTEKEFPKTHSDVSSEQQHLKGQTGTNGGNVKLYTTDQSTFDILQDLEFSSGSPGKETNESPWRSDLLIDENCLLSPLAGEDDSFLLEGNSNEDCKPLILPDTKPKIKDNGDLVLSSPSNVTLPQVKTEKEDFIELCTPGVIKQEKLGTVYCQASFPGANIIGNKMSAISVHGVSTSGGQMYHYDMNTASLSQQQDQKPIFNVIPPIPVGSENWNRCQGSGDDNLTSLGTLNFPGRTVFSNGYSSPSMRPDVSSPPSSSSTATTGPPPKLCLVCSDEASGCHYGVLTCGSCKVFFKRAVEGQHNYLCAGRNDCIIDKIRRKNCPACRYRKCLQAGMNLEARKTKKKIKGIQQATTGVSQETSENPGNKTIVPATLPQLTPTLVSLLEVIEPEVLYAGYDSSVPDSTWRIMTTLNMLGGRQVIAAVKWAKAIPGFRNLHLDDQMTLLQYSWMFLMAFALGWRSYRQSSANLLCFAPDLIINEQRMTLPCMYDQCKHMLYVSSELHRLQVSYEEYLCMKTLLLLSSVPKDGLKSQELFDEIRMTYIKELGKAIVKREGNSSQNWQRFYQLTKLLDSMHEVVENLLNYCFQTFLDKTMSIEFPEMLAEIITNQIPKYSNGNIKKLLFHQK

[4] = target: T3, Alpha-1A adrenergic receptor (Homo sapiens, UniProt P35348); type: functional, cell-based
T3 sequence (P35348 whole entry): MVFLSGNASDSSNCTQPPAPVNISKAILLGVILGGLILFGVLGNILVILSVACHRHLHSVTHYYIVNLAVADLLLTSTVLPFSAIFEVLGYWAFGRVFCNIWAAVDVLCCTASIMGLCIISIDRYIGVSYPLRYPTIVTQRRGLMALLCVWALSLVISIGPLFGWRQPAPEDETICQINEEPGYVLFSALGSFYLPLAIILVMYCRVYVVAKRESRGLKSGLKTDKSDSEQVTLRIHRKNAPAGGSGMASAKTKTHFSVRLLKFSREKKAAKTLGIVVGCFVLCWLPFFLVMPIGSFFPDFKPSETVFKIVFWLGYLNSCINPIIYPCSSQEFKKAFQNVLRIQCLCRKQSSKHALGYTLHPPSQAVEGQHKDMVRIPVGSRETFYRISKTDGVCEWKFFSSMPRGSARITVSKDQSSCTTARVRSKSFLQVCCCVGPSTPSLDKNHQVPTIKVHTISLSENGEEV

[5] = target: T1, Alpha-2A adrenergic receptor
[6] = target: Beta-2 adrenergic receptor (Homo sapiens, UniProt P07550)
[7] = target: T4, Muscarinic acetylcholine receptor M2 (Homo sapiens, UniProt P08172)
T4 sequence (P08172 whole entry): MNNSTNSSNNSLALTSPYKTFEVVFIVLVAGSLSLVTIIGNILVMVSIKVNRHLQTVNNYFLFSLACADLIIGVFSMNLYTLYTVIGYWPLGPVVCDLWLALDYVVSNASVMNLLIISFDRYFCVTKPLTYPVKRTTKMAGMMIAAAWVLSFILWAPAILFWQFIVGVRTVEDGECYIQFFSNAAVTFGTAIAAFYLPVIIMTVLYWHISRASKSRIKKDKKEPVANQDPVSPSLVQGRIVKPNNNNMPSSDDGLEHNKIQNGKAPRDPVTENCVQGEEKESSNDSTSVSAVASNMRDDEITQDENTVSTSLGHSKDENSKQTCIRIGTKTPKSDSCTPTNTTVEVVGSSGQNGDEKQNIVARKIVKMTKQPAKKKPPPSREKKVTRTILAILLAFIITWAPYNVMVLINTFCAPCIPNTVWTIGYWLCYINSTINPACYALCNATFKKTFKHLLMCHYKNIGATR

[8] = target: Cannabinoid receptor 1 (Homo sapiens, UniProt P21554)
[9] = target: D(3) dopamine receptor (Homo sapiens, UniProt P35462)
[10] = target: Prothrombin (Homo sapiens, UniProt P00734); type: functional
[11] = target: Histamine H3 receptor (Homo sapiens, UniProt Q9Y5N1)
[12] = target: Vascular endothelial growth factor receptor 2 (Homo sapiens, UniProt P35968); type: functional
[13] = target: Melanocortin receptor 4 (Homo sapiens, UniProt P32245)
[14] = target: cGMP-inhibited 3',5'-cyclic phosphodiesterase 3A (Homo sapiens, UniProt Q14432); type: functional
[15] = target: T5, Prostaglandin G/H synthase 1 (Homo sapiens, UniProt P23219); type: functional
[16] = target: T5, Prostaglandin G/H synthase 1; type: functional; remark: listed apart in the source
Note: assay procedure not described here.

5-hydroxytryptamine receptor 2A, sequence (P28223 whole entry): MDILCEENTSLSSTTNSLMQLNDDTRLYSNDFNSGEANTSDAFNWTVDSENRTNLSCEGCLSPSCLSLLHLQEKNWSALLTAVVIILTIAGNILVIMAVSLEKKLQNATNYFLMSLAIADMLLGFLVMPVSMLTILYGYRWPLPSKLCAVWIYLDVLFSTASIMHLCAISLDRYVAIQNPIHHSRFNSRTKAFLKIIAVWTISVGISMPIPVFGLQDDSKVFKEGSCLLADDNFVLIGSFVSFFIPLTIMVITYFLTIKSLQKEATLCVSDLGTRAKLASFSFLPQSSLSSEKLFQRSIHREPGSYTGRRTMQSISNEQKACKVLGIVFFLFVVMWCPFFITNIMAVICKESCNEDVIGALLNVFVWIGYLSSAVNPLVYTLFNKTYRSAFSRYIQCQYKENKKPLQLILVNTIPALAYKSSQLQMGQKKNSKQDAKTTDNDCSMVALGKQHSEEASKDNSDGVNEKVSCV
cGMP-inhibited 3',5'-cyclic phosphodiesterase 3A, sequence (Q14432 whole entry): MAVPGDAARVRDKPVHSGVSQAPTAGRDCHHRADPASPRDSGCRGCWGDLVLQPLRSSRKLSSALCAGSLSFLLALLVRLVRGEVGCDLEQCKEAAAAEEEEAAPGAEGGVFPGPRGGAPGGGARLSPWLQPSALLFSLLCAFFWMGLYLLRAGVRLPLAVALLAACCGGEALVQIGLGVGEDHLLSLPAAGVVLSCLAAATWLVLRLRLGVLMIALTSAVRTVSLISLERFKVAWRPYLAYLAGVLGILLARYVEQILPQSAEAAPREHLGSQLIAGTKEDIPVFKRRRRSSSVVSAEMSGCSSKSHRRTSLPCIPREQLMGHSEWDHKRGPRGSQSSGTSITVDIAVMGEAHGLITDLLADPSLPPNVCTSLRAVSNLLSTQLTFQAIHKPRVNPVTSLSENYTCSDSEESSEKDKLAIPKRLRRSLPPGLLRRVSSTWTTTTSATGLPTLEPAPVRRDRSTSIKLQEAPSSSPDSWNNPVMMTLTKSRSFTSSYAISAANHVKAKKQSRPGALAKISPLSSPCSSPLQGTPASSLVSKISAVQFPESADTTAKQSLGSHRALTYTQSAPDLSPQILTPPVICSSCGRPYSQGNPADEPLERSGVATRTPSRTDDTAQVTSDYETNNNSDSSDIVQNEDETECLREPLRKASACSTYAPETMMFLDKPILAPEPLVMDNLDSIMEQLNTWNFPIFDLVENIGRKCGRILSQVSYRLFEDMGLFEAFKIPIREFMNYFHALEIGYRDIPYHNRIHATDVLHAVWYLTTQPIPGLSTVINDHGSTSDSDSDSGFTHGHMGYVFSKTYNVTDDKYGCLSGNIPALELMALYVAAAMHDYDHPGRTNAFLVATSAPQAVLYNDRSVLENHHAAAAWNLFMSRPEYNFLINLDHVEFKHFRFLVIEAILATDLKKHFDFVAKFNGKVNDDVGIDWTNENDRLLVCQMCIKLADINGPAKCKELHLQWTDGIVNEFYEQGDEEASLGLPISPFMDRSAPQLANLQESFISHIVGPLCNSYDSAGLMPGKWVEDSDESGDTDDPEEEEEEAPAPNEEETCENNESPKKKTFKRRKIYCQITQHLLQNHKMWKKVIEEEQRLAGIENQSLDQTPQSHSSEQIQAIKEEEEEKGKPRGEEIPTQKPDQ
Histamine H3 receptor, sequence (Q9Y5N1 whole entry): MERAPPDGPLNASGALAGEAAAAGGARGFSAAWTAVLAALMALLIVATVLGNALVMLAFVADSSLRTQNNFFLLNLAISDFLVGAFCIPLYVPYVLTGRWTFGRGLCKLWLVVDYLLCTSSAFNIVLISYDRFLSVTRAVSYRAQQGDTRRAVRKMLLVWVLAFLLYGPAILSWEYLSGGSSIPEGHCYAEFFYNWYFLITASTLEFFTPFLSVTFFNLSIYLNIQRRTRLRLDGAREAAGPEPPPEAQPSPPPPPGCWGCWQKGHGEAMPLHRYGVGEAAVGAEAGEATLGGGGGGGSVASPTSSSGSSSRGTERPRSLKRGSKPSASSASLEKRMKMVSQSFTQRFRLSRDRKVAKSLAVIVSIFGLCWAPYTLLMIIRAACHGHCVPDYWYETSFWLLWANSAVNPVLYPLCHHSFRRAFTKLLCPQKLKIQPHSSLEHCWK
T5 sequence (P23219 whole entry): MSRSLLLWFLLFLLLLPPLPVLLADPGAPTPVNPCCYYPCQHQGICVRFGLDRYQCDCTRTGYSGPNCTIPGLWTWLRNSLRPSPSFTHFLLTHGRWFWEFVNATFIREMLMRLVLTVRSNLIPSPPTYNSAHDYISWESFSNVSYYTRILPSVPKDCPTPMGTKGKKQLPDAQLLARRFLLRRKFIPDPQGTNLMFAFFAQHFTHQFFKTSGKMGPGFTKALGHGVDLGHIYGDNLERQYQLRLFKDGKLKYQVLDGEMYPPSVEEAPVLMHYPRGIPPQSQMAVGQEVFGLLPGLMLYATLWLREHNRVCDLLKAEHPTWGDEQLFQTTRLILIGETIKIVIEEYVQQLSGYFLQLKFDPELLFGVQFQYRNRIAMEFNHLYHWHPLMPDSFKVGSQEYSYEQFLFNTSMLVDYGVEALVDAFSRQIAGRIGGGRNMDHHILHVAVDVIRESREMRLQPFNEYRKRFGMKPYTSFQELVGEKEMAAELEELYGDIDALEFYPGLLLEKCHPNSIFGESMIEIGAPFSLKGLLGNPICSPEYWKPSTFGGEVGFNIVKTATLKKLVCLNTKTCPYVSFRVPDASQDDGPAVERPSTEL
Vascular endothelial growth factor receptor 2, sequence (P35968 whole entry): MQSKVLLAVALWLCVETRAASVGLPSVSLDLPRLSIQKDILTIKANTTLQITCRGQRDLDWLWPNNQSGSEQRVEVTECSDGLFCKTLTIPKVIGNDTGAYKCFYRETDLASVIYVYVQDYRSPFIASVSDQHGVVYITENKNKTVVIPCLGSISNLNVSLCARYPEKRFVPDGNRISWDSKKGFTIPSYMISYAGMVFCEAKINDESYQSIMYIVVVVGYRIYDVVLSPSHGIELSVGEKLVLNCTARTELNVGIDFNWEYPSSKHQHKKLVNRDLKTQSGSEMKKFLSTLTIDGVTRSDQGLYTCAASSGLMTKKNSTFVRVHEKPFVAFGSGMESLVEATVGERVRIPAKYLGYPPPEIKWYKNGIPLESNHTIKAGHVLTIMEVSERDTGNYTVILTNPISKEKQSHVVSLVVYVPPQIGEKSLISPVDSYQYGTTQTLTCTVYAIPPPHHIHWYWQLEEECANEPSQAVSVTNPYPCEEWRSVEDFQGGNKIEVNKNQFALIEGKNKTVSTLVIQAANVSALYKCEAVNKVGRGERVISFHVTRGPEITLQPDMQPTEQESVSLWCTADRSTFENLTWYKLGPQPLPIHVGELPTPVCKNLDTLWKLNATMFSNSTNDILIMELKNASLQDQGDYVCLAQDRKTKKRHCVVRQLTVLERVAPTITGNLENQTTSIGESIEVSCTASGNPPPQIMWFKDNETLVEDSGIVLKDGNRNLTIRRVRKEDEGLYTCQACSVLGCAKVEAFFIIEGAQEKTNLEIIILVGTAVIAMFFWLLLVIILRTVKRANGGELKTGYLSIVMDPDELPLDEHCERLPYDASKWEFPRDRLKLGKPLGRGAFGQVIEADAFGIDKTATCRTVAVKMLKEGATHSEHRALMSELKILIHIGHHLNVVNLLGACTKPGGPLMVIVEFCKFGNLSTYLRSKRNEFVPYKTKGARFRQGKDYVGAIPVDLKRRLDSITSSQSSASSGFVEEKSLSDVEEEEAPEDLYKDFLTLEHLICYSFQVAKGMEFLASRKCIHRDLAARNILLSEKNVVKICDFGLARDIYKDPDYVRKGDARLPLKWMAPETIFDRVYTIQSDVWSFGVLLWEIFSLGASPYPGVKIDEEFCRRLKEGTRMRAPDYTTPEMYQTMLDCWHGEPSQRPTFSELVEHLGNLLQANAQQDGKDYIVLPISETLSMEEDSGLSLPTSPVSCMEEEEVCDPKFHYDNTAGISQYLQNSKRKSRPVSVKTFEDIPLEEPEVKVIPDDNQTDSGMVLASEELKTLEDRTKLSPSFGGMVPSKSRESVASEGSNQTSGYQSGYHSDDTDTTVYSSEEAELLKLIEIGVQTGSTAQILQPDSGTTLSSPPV
D(3) dopamine receptor, sequence (P35462 whole entry): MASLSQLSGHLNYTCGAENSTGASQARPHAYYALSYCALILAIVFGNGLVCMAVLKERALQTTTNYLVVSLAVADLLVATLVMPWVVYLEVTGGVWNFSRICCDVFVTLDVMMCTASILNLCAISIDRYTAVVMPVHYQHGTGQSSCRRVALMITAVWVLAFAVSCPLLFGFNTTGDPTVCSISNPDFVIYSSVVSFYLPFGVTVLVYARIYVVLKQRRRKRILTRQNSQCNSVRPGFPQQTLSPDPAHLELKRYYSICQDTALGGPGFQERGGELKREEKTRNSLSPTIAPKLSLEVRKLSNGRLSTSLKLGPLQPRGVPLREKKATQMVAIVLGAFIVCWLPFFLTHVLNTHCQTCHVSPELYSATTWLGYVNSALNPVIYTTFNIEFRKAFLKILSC
Melanocortin receptor 4, sequence (P32245 whole entry): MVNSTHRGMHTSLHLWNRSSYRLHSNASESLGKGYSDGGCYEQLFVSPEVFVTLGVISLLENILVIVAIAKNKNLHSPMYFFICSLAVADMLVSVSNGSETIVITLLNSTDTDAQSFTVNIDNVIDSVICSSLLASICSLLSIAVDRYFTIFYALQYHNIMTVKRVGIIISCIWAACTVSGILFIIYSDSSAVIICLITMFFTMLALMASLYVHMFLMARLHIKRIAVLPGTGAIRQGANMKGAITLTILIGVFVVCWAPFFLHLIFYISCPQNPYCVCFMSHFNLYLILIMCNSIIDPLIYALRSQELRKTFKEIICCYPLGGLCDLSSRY

Compound | AC50 [1] [µM] | AC50 [2] [µM] | AC50 [3] [µM] | AC50 [4] [µM] | AC50 [5] [µM] | AC50 [6] [µM] | AC50 [7] [µM] | AC50 [8] [µM] | AC50 [9] [µM] | AC50 [10] [µM] | AC50 [11] [µM] | AC50 [12] [µM] | AC50 [13] [µM] | AC50 [14] [µM] | AC50 [15] [µM] | AC50 [16] [µM]
CCC(C)C1(CC)C(=O)NC(=O)NC1=O (centres undefined) [BUTABARBITAL] | > 30 | > 30 | > 30 | > 30 | – | – | – | – | – | – | – | – | – | – | – | –
Oc1ccc2c(c1)CC[C@H](c1ccccc1)[C@@H]2c1ccc(OCCN2CCCC2)cc1 [LASOFOXIFENE] | – | 12 | 9.3 | 12 | – | – | – | – | – | – | – | – | – | – | – | –
Cc1cccc(N2CC(CO)OC2=O)c1 (centres undefined) [TOLOXATONE] | > 30 | > 30 | > 30 | > 30 | – | – | – | – | – | – | – | – | – | – | – | –
C[C@]12CC[C@@H]3c4ccc(O)cc4C[C@@H](CCCCCCCCC[S+]([O-])CCCC(F)(F)C(F)(F)F)[C@H]3[C@@H]1CC[C@@H]2O (some centres undefined) [FULVESTRANT] | > 30 | > 30 | 1.1 | > 30 | – | – | – | – | – | – | – | – | – | – | – | –
CCC(=O)O[C@]1(C(=O)SCF)[C@H](C)C[C@H]2[C@@H]3C[C@H](F)C4=CC(=O)C=C[C@]4(C)[C@@]3(F)[C@@H](O)C[C@@]21C [FLUTICASONE PROPIONATE] | > 30 | – | – | > 30 | > 30 | > 30 | > 30 | > 30 | > 30 | > 30 | > 30 | > 30 | > 30 | > 30 | > 30 | > 30
CC(=O)O[C@]1(C(C)=O)CC[C@H]2[C@@H]3C=C(Cl)C4=CC(=O)CC[C@]4(C)[C@H]3CC[C@@]21C [CHLORMADINONE ACETATE] | – | – | – | – | > 30 | – | 25.3 | – | > 30 | > 30 | > 30 | > 30 | – | > 30 | > 30 | > 30
CCN(CCCc1ccccc1)CCCc1ccccc1 [ALVERINE] | – | – | – | – | 1.96 | – | 0.134 | – | 1.96 | > 30 | > 30 | > 30 | – | > 30 | > 30 | > 30
CC(=O)N[C@@H](CS)C(=O)O [ACETYLCYSTEINE] | > 30 | > 30 | > 30 | > 30 | – | – | – | – | – | – | – | – | – | – | – | –
C/N=C(\NC)NCc1ccccc1 [BETHANIDINE] | > 30 | > 30 | > 30 | > 30 | – | – | – | – | – | – | – | – | – | – | – | –
Cc1cc(N)c2ccccc2[n+]1CCCCCCCCCC[n+]1c(C)cc(N)c2ccccc21 | – | – | – | – | 0.464 | – | 0.0497 | – | 0.0798 | 28.8 | 0.0813 | > 30 | – | 10 | 14.8 | 1.57
